The values below are quoted from earlier work in patent US20220023237A1, “ADDITIVE AND/OR SYNERGISTIC COMBINATIONS OF METFORMIN WITH NUTRACEUTICALS FOR THE PREVENTION, INHIBITION AND TREATMENT OF SARS-COV-2 AND ASSOCIATED COVID-19” (priority 2020, published 2022).

Like-named read-outs stand apart in the source and are kept apart here.

The subject of data set [1] is Nrf2 (+/+) primary peritoneal macrophages.
Data set [2] concerns LPS-challenged macrophages. The conditions noted are these: pre-incubated 6 h, 0 to 50 μM, then LPS 24 h.
For data set [3], the system named is BALB/c mice with LPS-induced ARDS.
Data set [4] concerns lipopolysaccharide-induced inflammatory reactions.
In data set [5] the test system is mice challenged with endotoxin or live Escherichia coli. The settings on record: for concentration of IL-1α: controls 1187.0±278.64.
In data set [6] the test system is lipopolysaccharide-activated macrophages. The conditions noted are these: electrophoretic mobility shift assay.
The test system of data set [7] is macrophage foam cells. The conditions noted are these: pretreatment with EGCG.
The subject of data set [8] is rats subjected to myocardial ischemia and reperfusion. The settings on record: EGCG 10 mg/kg intravenously, then 10 mg/kg/h.
The test system of data set [9] is mice with experimental colitis.
Data set [10] concerns male Sprague-Dawley rats. The conditions noted are these: EGCG 10 mg/kg intraperitoneally at 1 and 6 h after CL2P and every 12 h.
In data set [11] the test system is C57BL6 mice. The settings on record: EGCG 10 mg/kg intraperitoneally, 72 h after CL2P.
Data set [12] deals with mice.
Data set [13] deals with mice with LPS-induced ARDS.

Consider `C[S+]([O-])CCCCN=C=S` (stereo not shown) [sulforaphane, 1-isothiocyanato-4-(methylsulfinyl)-butane], for which the HO-1 expression entry in data set [1] (LPS-stimulated Nrf2 (+/+) macrophages) is recorded as “significantly augmented”. Moreover, in [1] (pretreatment, Nrf2 (+/+) macrophages), the “LPS-stimulated mRNA expression, protein expression and production of TNF-alpha, IL-1beta, COX-2 and iNOS” value is “potently inhibited”. Besides, the “expression of NO and cytokines” value in data set [2] is given as “able to prevent”. For the same compound, in data set [3] (pre-treatment), the “Nrf2/antioxidant response element (ARE) pathway” value is on record as “activated”. Further, the “PGE2 production, COX-2 and MMP-9 protein expression, iNOS activity” value in data set [3] (sulforaphane 50 mg/kg) is listed as “significantly inhibited”. For the same compound, in data set [3] (sulforaphane 50 mg/kg, LPS 5 mg/kg 3 days later), the “LDH activity, wet-to-dry ratio of the lungs, serum IL-6 and TNF-α, nuclear factor-κB protein expression” value is given as “significantly decreased”.

Turning to `CC1=CC(=O)C(C(C)C)=CC1=O` [thymoquinone], the lipopolysaccharide-induced inflammatory reactions entry in data set [4] is given as “suppressed effectively”. In [4] (marker of inflammation), the “concentration of nitric oxide” value is recorded as “reduced significantly”. Moreover, the “concentration of IL-1α” value was 310.8 ± 70.93 pg/mL in [5] (0.75 mg/kg dose) and 428.3 ± 71.32 pg/mL in data set [5] (1 mg/kg group). For the same compound, the IL-10 levels in data set [5] (0.75 mg/kg, controls 5505.2 ±333.96) is 2885.0 ± 553.98 pg/mL. Also, in data set [5] (P values=0.1817 and 0.0851), the “levels of TNF-α and IL-2” value is “relatively lower levels”. Besides, in [5] (septic mice), the “renal and hepatic biomarker profiles” value is “improved”. In data set [5] (septic mice, thymoquinone intraperitoneal), the reduction of mortality is given as 80-90%.

On to Epigallocatechin-3-gallate [EGCG], for which, in data set [6], the “activation of nuclear factor-kappaB” value is listed as “blocked”. In addition, the “TNF-α-induced downregulation of ABCA1 and decrease in cholesterol efflux to apoA1” value in [7] is recorded as “attenuated”. Moreover, in data set [8], the “myocardial damage and myeloperoxidase activity” value is “reduced”; the “plasma IL-6 and creatine phosphokinase levels” value was “decreased”. For the same compound, in [9] (50 and 100 mg/kg/day, compared with the MD group), the “disease activity index (DAI) and spleen index (SI)” value is “decreased”. Further, in data set [9] (mouse, in vivo), the “HIF-1α and STAT3 protein expression in the colon” value is recorded as “decreasing”; the “plasma levels of IL-10 and TGF-β1” value is recorded as “increasing”. The “release of IL-6 and IL-17” value in [9] (plasma) was “reduce”. The hypotension result in [10] is reported as “significantly improved”. Also, in [11], the survival result is listed as “significantly improved”. Also, in [12] (first dose given 24 hours after cecal ligation and puncture), the lethal sepsis result is “rescued”. In addition, in [12] (intraperitoneal administration), the lethal endotoxemia result is recorded as “protected”. Also, in [13] (EGCG 10 mg/kg ip), the “expression of IκB-α” value is on record as “increased”; the “expression of TLR-4, MyD88, TRIF and p-p65 in the lung tissue” value is recorded as “alleviated”; the “expression of TNF-α, IL-1β and IL-6 in the lung, serum and bronchoalveolar lavage fluid” value is listed as “significantly decreased”; the “expression of p65” value is “no influence”. The “LPS-induced ARDS (blood gases, histological lesions, wet-to-dry weight ratios, MPO activity)” value in data set [13] (EGCG 10 mg/kg ip 1 h before LPS 10 mg/kg ip) is recorded as “attenuated”.
